Results on six compounds are retold here after patent publication US5801035A, “L-amino acid oxidase” (Novo Nordisk A/S, priority 1993, dated 1998).

The experiment deals with L-amino acid oxidase. Put plainly: Substrate specificity: specific activity and Km (Lineweaver-Burk) with various L-amino acids, H2O2 detected with ABTS and CiP. The experiment is classed as biochemical, Trichoderma harzianum. Particulars: phosphate buffer pH 8.5, room temperature; for Km: Lineweaver-Burk plots; for Specific Activity: 20 minutes. Here is the method: The specific activity of the purified L-amino acid oxidase was 16 U/mg determined in a 50 mM phosphate buffer at pH 8.5, 20° C. with 1 mM L-arginine as substrate. One unit of enzyme will form 1 μmole of hydrogen peroxide per minute. The amount of protein is quantified assuming that a solution of the L-amino acid oxidase having an optical density of 1 determined at 280 nm contains 1 mg of protein/ml. The L-amino acid oxidase yield was approx. 50 mg of pure protein per litre of culture medium.
In the following characterization experiments, detection of H2 O2 was carried out using a Coprinus cinereus peroxidase (CiP), obtained according to WO 92/16634, at a level of 4.5 PODU/ml, and 0.4 mM ABTS in phosphate buffer at pH 7.0. The hydrogen peroxide concentrations were determined relative to a freshly prepared hydrogen peroxide standard solution.
The activity of the L-amino acid oxidase was determined with various L-amino acids as substrates. The L-amino acid oxidase was incubated with substrate in a phosphate buffer at pH 8.5 and room temperature for 20 minutes. Generated hydrogen peroxide was detected using ABTS and CiP as described above. The specific activity was determined as described in Example 2 above.
Km values for the various substrates were determined by plotting values of 1/v versus 1/s (Lineweaver-Burk plots).

As for `N=C(N)NCCC[C@H](N)C(=O)O` [L-arginine], the Km (in general, the substrate concentration at which the rate is half of its maximum) was 1.2 mM. Also, where the note is “Substrate Conc. 1 (m/M)”, the “Specific Activity” value was 16 U/mg. Also, under “Substrate Conc. 10 (m/M)”, the “Specific Activity” value came to 30 U/mg.
As to `NC(=O)C[C@H](N)C(=O)O` [L-asparagine], the Km is 20 mM. The “Specific Activity” value (Substrate Conc. 80 (m/M)) was determined as 7 U/mg.
In the case of `CC(C)C[C@H](N)C(=O)O` [L-leucine], the Km is 40 mM. Also, the “Specific Activity” value (Substrate Conc. 80 (m/M)) was determined as 16 U/mg.
As to `NCCCC[C@H](N)C(=O)O` [L-lysine], the Km was determined as 0.2 mM. Moreover, the “Specific Activity” value (Substrate Conc. 1 (m/M)) is 7 U/mg.
For the compound `CSCC[C@H](N)C(=O)O` [L-methionine], the Km worked out at 15 mM. The “Specific Activity” value (Substrate Conc. 80 (m/M)) worked out at 8 U/mg.
For the compound `N[C@@H](Cc1ccccc1)C(=O)O` [L-phenylalanine], the Km is 25 mM. For the setting “Substrate Conc. 80 (m/M)”, the “Specific Activity” value is 25 U/mg.
